Patent US9687467B2, “Diagnosis and treatment of taxane-resistant cancers” (Children's Medical Center Corporation, priority 2011, dated 2017)

Tests used:
[1] = test system: MES-SA^DX5 cells; assay: MTT cell viability assay, paclitaxel response after miRNA transfection; type: cell-based, human; conditions: cells transfected with scrambled non-targeting miRNA, 100 nM paclitaxel
Procedure: The paclitaxel-resistant cell lines MES-SA^DX5 and A549^TR were transfected with a scrambled non-targeting miRNA (control) and an miR-135a mimic (mimic), respectively. Cells were subsequently treated with 100 nM paclitaxel and cell viability was assessed using the MTT assay (FIGS. 2A, 2B). The percentage of apoptotic cells was assessed by Annexin V-staining and FACS analysis (FIGS. 2C, 2D). Values are presented as percent cell survival in paclitaxel-treated cells relative to untreated cells. *P<0.05, **P<0.001 as determined by Wilcoxon's rank sum test.
Cell growth inhibition was determined by a 3-(4,5-dimethylthiazol-2-yl)-2,5-diphenyltetrazolium (MTT) bromide assay. Briefly, ˜2.5×10^4 cells were plated in a 96-well plate and paclitaxel was added in appropriate concentrations 24 hours later. […] Absorbance was determined using a 96-well SpectraMax plate reader (Molecular Devices, Sunnyvale, Calif.) at 560 nm and 650 nm (background).
Double-stranded RNA oligos representing a mature sequence that mimics endogenous miR-135a, anti-miR-135a designed to inhibit endogenous miR-135a, and anti-miR negative control were all obtained from Ambion™ and were transfected into cell lines at ˜50% confluence at 30 nM concentration with siLentFect (Bio-Rad™). […] The next day, luciferase activity was measured using the Dual-Glo® Luciferase assay system (Promega™, Madison, Wis.). […]

[2] = test system: A549 cells overexpressing miR-135a; assay: Xenograft of A549 cells stably overexpressing miR-135a, paclitaxel treatment; type: in vivo, nude mice; conditions: paclitaxel three times a week for 3 weeks
Procedure: A549 cells stably expressing either non-targeting premiR (A549-control) or premiR-135a (A549-miR-135a) were generated. (FIG. 8A) miR-135a expression level in A549-control and -miR-135a was determined and compared with A549 and A549TR cells using qRT-PCR analysis. *P<0.01. (FIG. 8B) Paclitaxel response of A549-control and A549-premiR-135a cells was determined using the MTT assay. (FIG. 8C) APC protein expression was examined using western blot analysis in A549-control and -premiR-135a cells. (FIG. 8D) A549-control and -premiR-135a cells were inoculated subcutaneously into the flanks of nude mice. Paclitaxel treatment was given three times a week for 3 weeks. The tumor size in each group was measured during the course of treatment and was calculated, relative to the size before treatment initiation. Each curve represents the average tumor growth±s.e.m. for 10 mice per group. **P<0.001 as determined by Wilcoxon's rank sum test.
The inventors subsequently investigated the role of miR-135a in paclitaxel sensitivity in vivo. […] As expected, miR-135a […] attenuated paclitaxel-induced cell death (FIG. 8B) and APC protein expression (FIG. 8C) relative to control transfected A549 cells in vitro. […] Paclitaxel treatment was given three times a week for 3 weeks, and tumor size in each group was monitored during the course of treatment. […]

CC(=O)O[C@H]1C(=O)[C@@]2(C)[C@H]([C@H](OC(=O)c3ccccc3)[C@]3(O)C[C@H](OC(=O)[C@H](O)[C@@H](NC(=O)c4ccccc4)c4ccccc4)C(C)=C1C3(C)C)[C@]1(OC(C)=O)CO[C@@H]1C[C@@H]2O [paclitaxel]
cell survival in paclitaxel-treated cells relative to untreated cells [1]: 102.2% | in vivo growth under paclitaxel exposure [2]: not reduced
